Data reported in patent US20180280337A1, “NUTRITIONAL COMPOSITIONS COMPRISING SN-1(3) MONOACYLGLYCEROLS FOR USE IN THE TREATMENT OF GROWTH DELAY IN INFANTS OR CHILDREN” (NESTEC S.A., priority 2014, published 2018).

Columns and labels:
[1] = Lipid maldigestion or malabsorption rat model (XENICAL-induced): EPA level in red blood cells and tissue after feeding EPA glycerides or fish oil; format: in vivo; settings: for level of EPA incorporated in red blood cells: rats given XENICAL, day 7 data (FIG. 3)
Description: The concept was tested in a lipid maldigestion or malabsorption rat model. The maldigestion or malabsorption condition was obtained using XENICAL® (ORLISTAT, tetrahydrolipstatin), a pancreatic and gastric lipases inhibitor. Rats were fed during 21 days with long-chain polyunsaturated fatty acid (LC-PUFA) supplements containing mainly eicosapentaenoic (EPA) acid. Fish oil was used as a source of triacylglycerols, and different EPA glycerides were evaluated: Vanillin acetal of 2-EPA (from Stepan Lipid Nutrition); 1,3 Diacetyl-2 EPA (from Stepan Lipid Nutrition) and Sn-1(3)-MAG-EPA (purchased from Cognis GmbH, Germany). XENICAL® (ORLISTAT) was given at a level sufficient to decrease lipid absorption by 40%. A group receiving fish oil without XENICAL® (ORLISTAT) was used as a positive control. At different time intervals (D3, D7, […]), the fatty acid profiles of red blood cells and plasma lipids were determined. At the end of the experiment, the fatty acid profiles of different tissues were determined. The main objective was to follow the level of EPA in red blood cells and plasma lipids. The main comparison evaluated was the difference in EPA level between the group receiving EPA glycerides such as EPA-containing sn-1(3) MAG, in combination with XENICAL® (ORLISTAT) and the positive control group […].

[2] = Clinical study comparing sn-1(3) MAG and fish oil (TAG) in delivering EPA under lipid maldigestion induced by XENICAL; format: in vivo, humans; settings: for chronic effect: accretion of EPA in erythrocytes as percentage of total fatty acids: compared with fish oil + XENICAL, p=0.0001 (FIG. 6)
Description: This clinical study compared the efficacy of sn-1(3) MAG and fish oil (TAG) in delivering EPA in humans under lipid maldigestion conditions induced by XENICAL® (ORLISTAT). The comparison was tested in volunteers treated with XENICAL® to induce lipid maldigestion or not treated with XENICAL® (ORLISTAT). The primary objective was to assess accretion of EPA in erythrocytes over 21 days when consumed as fish oil (TAG) or sn-1(3) MAG. The secondary objectives were to assess accretion of EPA in plasma over 21 days and also to assess the pharmacokinetics of EPA after an acute dose either in the form of sn-1(3) MAG or TAG (AUC in chylomicrons over 10 hours postprandial). See FIG. 4 that describes the clinical study timeline.

Compound | effect of XENICAL on EPA incorporation in red blood cells ([1]; fish oil + XENICAL compared with fish oil without XENICAL, day 7) | incorporation of LC-PUFAs in tissue ([1]; conditions of lipid maldigestion or malabsorption (XENICAL), comparison of groups A, B and C) | level of EPA incorporated in red blood cells ([1]; compared with fish oil group without XENICAL) | level of EPA incorporated in red blood cells ([1]; fed 21 days, compared with fish oil + XENICAL, all P values lower than 0.05, listed as sn-1(3) MAG that contained EPA) | level of EPA incorporated in red blood cells ([1]; fed 21 days, compared with fish oil + XENICAL, all P values lower than 0.05, listed as sn-1(3)MAGs) | chronic effect: accretion of EPA in erythrocytes as percentage of total fatty acids ([2]; after 21 days, with XENICAL) | chronic effect: accretion of EPA in erythrocytes as percentage of total fatty acids ([2]; after 21 days, with XENICAL, listed as sn-1(3)MAGs) | chronic effect: accretion of EPA in plasma as percentage of total fatty acids ([2]; after 21 days, with XENICAL, relative to fish oil + XENICAL, p=0.0003 (FIG. 7)) | carrier for EPA (overall conclusion of the clinical trial) ([2]; human subjects treated with XENICAL, compared with fish oil (TAG))
CCCCCCCCCCC[C@@H](C[C@@H]1OC(=O)[C@H]1CCCCCC)OC(=O)[C@H](CC(C)C)NC=O [XENICAL, tetrahydrolipstatin, reference compound] | decreases EPA incorporation in red blood cells | – | – | – | – | – | – | – | –
CC/C=C\C/C=C\C/C=C\C/C=C\C/C=C\CCCC(=O)OCC(O)CO (stereo not drawn) [sn-1(3) MAG, sn-1(3)-monoeicosapentaenoylglycerol] | – | improved | even higher than the fish oil group | statistically higher | significantly higher | statistically significant | significantly higher | statistically significant | better carrier for EPA than fish oil (TAG)
